Results on 18 compounds are retold here after patent publication US20230295200A1 (REGENTS OF THE UNIVERSITY OF MICHIGAN, priority 2022, published 2023).

pKi: −log10 of the molar value.

This assay deals with T1, STAT5A (Homo sapiens, UniProt P42229).
T1 sequence (P42229 1-794): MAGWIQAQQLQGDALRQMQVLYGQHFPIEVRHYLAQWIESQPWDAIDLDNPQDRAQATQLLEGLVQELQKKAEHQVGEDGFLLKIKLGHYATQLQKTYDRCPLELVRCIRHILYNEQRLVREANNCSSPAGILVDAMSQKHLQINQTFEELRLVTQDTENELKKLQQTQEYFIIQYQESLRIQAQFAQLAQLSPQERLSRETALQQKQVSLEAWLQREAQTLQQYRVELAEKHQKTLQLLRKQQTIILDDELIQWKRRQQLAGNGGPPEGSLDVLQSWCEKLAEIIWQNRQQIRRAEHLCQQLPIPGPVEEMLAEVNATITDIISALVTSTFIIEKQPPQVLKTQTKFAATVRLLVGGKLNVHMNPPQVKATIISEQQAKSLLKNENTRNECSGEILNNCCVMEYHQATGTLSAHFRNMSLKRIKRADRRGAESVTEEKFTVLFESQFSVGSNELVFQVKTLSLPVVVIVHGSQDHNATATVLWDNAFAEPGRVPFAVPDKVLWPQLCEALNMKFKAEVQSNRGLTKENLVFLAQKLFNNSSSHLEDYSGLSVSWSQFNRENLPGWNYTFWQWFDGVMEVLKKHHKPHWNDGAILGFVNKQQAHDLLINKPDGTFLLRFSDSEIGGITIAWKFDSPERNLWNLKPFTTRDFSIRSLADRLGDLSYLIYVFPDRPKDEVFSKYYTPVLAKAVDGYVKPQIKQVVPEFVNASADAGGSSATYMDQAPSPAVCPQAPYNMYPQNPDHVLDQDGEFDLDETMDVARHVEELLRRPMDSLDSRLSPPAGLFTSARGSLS
Put plainly: Fluorescence polarization (FP) binding assay, STAT5A. The conditions noted are these: FP competition, 5 nM fluorescein-labeled tracer, 200 nM protein, PBS pH7.4. As for the experimental part: Evaluation of the activity of the inhibitors may be accomplished by fluorescence polarization (FP) experiments. A representative general protocol is the following:
Fluorescence polarization (FP) experiments are performed in black round-bottom plates using the CLARIOstar microplate reader. To each well, fluorescein-labeled tracer and STAT5 or STAT6 protein are added in assay buffer. […] The inhibition constants are determined as the concentration of the STAT5 or STAT6 at which 50% of the ligand is bound.
Fluorescence polarization (FP) experiments were performed in 96-well, black round-bottom plates (Microfluor 2, Fisher Scientific) using the CLARIOstar microplate reader (BMG Labtech). To each well, 5 nM of fluoresceinlabeled tracer and 200 nM of STAT5 and/or STAT6 protein were added to a final volume of 100 μl in the assay buffer (PBS pH7.4+0.01% BGG+0.01% Tween-20, 2 mM DTT). The plate was mixed on a shaker for 15 m and incubated at room temperature for 1 h to reach equilibrium. […] All experimental data were analyzed using Prism 8.0 software (GraphPad Software), and the inhibition constants were determined by nonlinear curve fitting as the concentration of the STAT5 and/or STAT6 at which 50% of the ligand is bound.
For `CC(C)(C)[C@H](NC(=O)c1cc2cc(C(F)(F)P(=O)(O)O)ccc2s1)C(=O)N1CCC[C@H]1C(=O)Nc1ncc(-c2cc3ccccc3[nH]2)s1` [Compound 250, ((2-(((S)-1-((S)-2-((5-(1H-indol-2-yl)thiazol-2-yl)carbamoyl)pyrrolidin-1-yl)-3,3-dimethyl-1-oxobutan-2-yl)carbamoyl)benzo[b]thiophen-5-yl)difluoromethyl)phosphonic acid], the pKi is less than 5.00.

`CC(C)c1cnc(NC(=O)[C@@H]2CCCN2C(=O)[C@@H](NC(=O)c2cc3cc(C(F)(F)P(=O)(O)O)ccc3s2)C(C)(C)C)s1` [Compound 251, (difluoro(2-(((S)-1-((S)-2-((5-isopropylthiazol-2-yl)carbamoyl)pyrrolidin-1-yl)-3,3-dimethyl-1-oxobutan-2-yl)carbamoyl)benzo[b]thiophen-5-yl)methyl)phosphonic acid]: the pKi is less than 5.00.

Consider `CC(C)(C)c1cnc(NC(=O)[C@@H]2CCCN2C(=O)[C@@H](NC(=O)c2cc3cc(C(F)(F)P(=O)(O)O)ccc3s2)C(C)(C)C)s1` [Compound 252, ((2-(((S)-1-((S)-2-((5-(tert-butyl)thiazol-2-yl)carbamoyl)pyrrolidin-1-yl)-3,3-dimethyl-1-oxobutan-2-yl)carbamoyl)benzo[b]thiophen-5-yl)difluoromethyl)phosphonic acid], for which the pKi is less than 5.00.

In turn, `CCCc1cnc(NC(=O)[C@@H]2CCCN2C(=O)[C@@H](NC(=O)c2cc3cc(C(F)(F)P(=O)(O)O)ccc3s2)C(C)(C)C)s1` [Compound 253, ((2-(((S)-3,3-dimethyl-1-oxo-1-((S)-2-((5-propylthiazol-2-yl)carbamoyl)pyrrolidin-1-yl)butan-2-yl)carbamoyl)benzo[b]thiophen-5-yl)difluoromethyl)phosphonic acid] gave a pKi of less than 5.00.

On to `CC(C)(C)[C@H](NC(=O)c1cc2cc(C(F)(F)P(=O)(O)O)ccc2s1)C(=O)N1CCC[C@H]1C(=O)Nc1ncc(C2CCCCC2)s1` [Compound 254, ((2-(((S)-1-((S)-2-((5-cyclohexylthiazol-2-yl)carbamoyl)pyrrolidin-1-yl)-3,3-dimethyl-1-oxobutan-2-yl)carbamoyl)benzo[b]thiophen-5-yl)difluoromethyl)phosphonic acid], for which the negative logarithm of the Ki (pKi) is 5.00 to 6.00.

With `CC(C)(C)[C@H](NC(=O)c1cc2cc(C(F)(F)P(=O)(O)O)ccc2s1)C(=O)N1CCC[C@H]1C(=O)Nc1ncc(-c2ccccc2)s1` [Compound 255, ((2-(((S)-3,3-dimethyl-1-oxo-1-((S)-2-((5-phenylthiazol-2-yl)carbamoyl)pyrrolidin-1-yl)butan-2-yl)carbamoyl)benzo[b]thiophen-5-yl)difluoromethyl)phosphonic acid], the pKi was 6.00 to 7.00.

Turning to `Cc1ccccc1-c1cnc(NC(=O)[C@@H]2CCCN2C(=O)[C@@H](NC(=O)c2cc3cc(C(F)(F)P(=O)(O)O)ccc3s2)C(C)(C)C)s1` [Compound 256, ((2-(((S)-3,3-dimethyl-1-oxo-1-((S)-2-((5-(o-tolyl)thiazol-2-yl)carbamoyl)pyrrolidin-1-yl)butan-2-yl)carbamoyl)benzo[b]thiophen-5-yl)difluoromethyl)phosphonic acid], the pKi was 5.00 to 6.00.

With `Cc1cccc(-c2cnc(NC(=O)[C@@H]3CCCN3C(=O)[C@@H](NC(=O)c3cc4cc(C(F)(F)P(=O)(O)O)ccc4s3)C(C)(C)C)s2)c1` [Compound 257, ((2-(((S)-3,3-dimethyl-1-oxo-1-((S)-2-((5-(m-tolyl)thiazol-2-yl)carbamoyl)pyrrolidin-1-yl)butan-2-yl)carbamoyl)benzo[b]thiophen-5-yl)difluoromethyl)phosphonic acid], the pKi was 5.00 to 6.00.

In turn, `Cc1ccc(-c2cnc(NC(=O)[C@@H]3CCCN3C(=O)[C@@H](NC(=O)c3cc4cc(C(F)(F)P(=O)(O)O)ccc4s3)C(C)(C)C)s2)cc1` [Compound 258, ((2-(((S)-3,3-dimethyl-1-oxo-1-((S)-2-((5-(p-tolyl)thiazol-2-yl)carbamoyl)pyrrolidin-1-yl)butan-2-yl)carbamoyl)benzo[b]thiophen-5-yl)difluoromethyl)phosphonic acid] had a pKi of less than 5.00.

`CC(C)(C)[C@H](NC(=O)c1cc2cc(C(F)(F)P(=O)(O)O)ccc2s1)C(=O)N1CCC[C@H]1C(=O)Nc1ncc(-c2ccccc2F)s1` [Compound 259, (difluoro(2-(((S)-1-((S)-2-((5-(2-fluorophenyl)thiazol-2-yl)carbamoyl)pyrrolidin-1-yl)-3,3-dimethyl-1-oxobutan-2-yl)carbamoyl)benzo[b]thiophen-5-yl)methyl)phosphonic acid] had a pKi of 5.00 to 6.00.

In turn, `CC(C)(C)[C@H](NC(=O)c1cc2cc(C(F)(F)P(=O)(O)O)ccc2s1)C(=O)N1CCC[C@H]1C(=O)Nc1ncc(-c2cccc(F)c2)s1` [Compound 260, (difluoro(2-(((S)-1-((S)-2-((5-(3-fluorophenyl)thiazol-2-yl)carbamoyl)pyrrolidin-1-yl)-3,3-dimethyl-1-oxobutan-2-yl)carbamoyl)benzo[b]thiophen-5-yl)methyl)phosphonic acid] showed a pKi of 6.00 to 7.00.

Regarding `CC(C)(C)[C@H](NC(=O)c1cc2cc(C(F)(F)P(=O)(O)O)ccc2s1)C(=O)N1CCC[C@H]1C(=O)Nc1ncc(-c2ccc(F)cc2)s1` [Compound 261, (difluoro(2-(((S)-1-((S)-2-((5-(4-fluorophenyl)thiazol-2-yl)carbamoyl)pyrrolidin-1-yl)-3,3-dimethyl-1-oxobutan-2-yl)carbamoyl)benzo[b]thiophen-5-yl)methyl)phosphonic acid], the pKi was 5.00 to 6.00.

`CC(C)(C)[C@H](NC(=O)c1cc2cc(C(F)(F)P(=O)(O)O)ccc2s1)C(=O)N1CCC[C@H]1C(=O)Nc1ncc(-c2cccc(Cl)c2)s1` [Compound 262, ((2-(((S)-1-((S)-2-((5-(3-chlorophenyl)thiazol-2-yl)carbamoyl)pyrrolidin-1-yl)-3,3-dimethyl-1-oxobutan-2-yl)carbamoyl)benzo[b]thiophen-5-yl)difluoromethyl)phosphonic acid] gave a pKi of 5.00 to 6.00.

Compound `CC(C)(C)[C@H](NC(=O)c1cc2cc(C(F)(F)P(=O)(O)O)ccc2s1)C(=O)N1CCC[C@H]1C(=O)Nc1ncc(-c2ccc(Cl)cc2)s1` [Compound 263, ((2-(((S)-1-((S)-2-((5-(4-chlorophenyl)thiazol-2-yl)carbamoyl)pyrrolidin-1-yl)-3,3-dimethyl-1-oxobutan-2-yl)carbamoyl)benzo[b]thiophen-5-yl)difluoromethyl)phosphonic acid] had a pKi of less than 5.00.

Regarding `CC(C)(C)[C@H](NC(=O)c1cc2cc(C(F)(F)P(=O)(O)O)ccc2s1)C(=O)N1CCC[C@H]1C(=O)Nc1ncc(-c2ccc(Br)cc2)s1` [Compound 264, ((2-(((S)-1-((S)-2-((5-(4-bromophenyl)thiazol-2-yl)carbamoyl)pyrrolidin-1-yl)-3,3-dimethyl-1-oxobutan-2-yl)carbamoyl)benzo[b]thiophen-5-yl)difluoromethyl)phosphonic acid], the pKi was 5.00 to 6.00.

In turn, `CN(C(=O)[C@@H]1CCCCCN1C(=O)[C@@H](NC(=O)c1cc2cc(C(F)(F)P(=O)(O)O)ccc2s1)C(C)(C)C)c1ncc(-c2ccccc2)s1` [Compound 303, ((2-(((S)-3,3-dimethyl-1-((S)-2-(methyl(5-phenylthiazol-2-yl)carbamoyl)azepan-1-yl)-1-oxobutan-2-yl)carbamoyl)benzo[b]thiophen-5-yl)difluoromethyl)phosphonic acid] gave a pKi of 5.00 to 6.00.

For `CCN(C(=O)[C@@H]1CCCCCN1C(=O)[C@@H](NC(=O)c1cc2cc(C(F)(F)P(=O)(O)O)ccc2s1)C(C)(C)C)c1ncc(-c2ccccc2)s1` [Compound 304, ((2-(((S)-1-((S)-2-(ethyl(5-phenylthiazol-2-yl)carbamoyl)azepan-1-yl)-3,3-dimethyl-1-oxobutan-2-yl)carbamoyl)benzo[b]thiophen-5-yl)difluoromethyl)phosphonic acid], the pKi is 5.00 to 6.00.

`CN(C)C(=O)CCN(C(=O)[C@@H]1CCCN1C(=O)[C@@H](NC(=O)c1cc2cc(C(F)(F)P(=O)(O)O)ccc2s1)C1CC1)c1ccc(-c2nccs2)cc1` [Compound 321, ((2-(((S)-1-cyclopropyl-2-((S)-2-((3-(dimethylamino)-3-oxopropyl)(4-(thiazol-2-yl)phenyl)carbamoyl)pyrrolidin-1-yl)-2-oxoethyl)carbamoyl)benzo[b]thiophen-5-yl)difluoromethyl)phosphonic acid]: the pKi was 5.00 to 6.00.
